Activity calls are given as the source filed them. No cut-off for these calls is given here.
What was measured:
K562 [1] = test: Cell cycle arrest in human K562 cells as assessed as accumulation at sub-G1 phase at 0.1 uM after 24 hrs by propidium iodide staining-based flow cytometric analysis relative to control; type: functional
WI-38 [2] = test: Cell cycle arrest in human WI38 cells as assessed as accumulation at G2/M phase at 1 uM after 48 hrs by propidium iodide staining-based flow cytometric analysis relative to control; conditions: wi-38, 48 h
SW-620 [3] = test: Cell cycle arrest in human SW620 cells as assessed as accumulation at G1 phase at 1 uM after 48 hrs by propidium iodide staining-based flow cytometric analysis relative to control; type: functional
MCF7 [4] = test: Cell cycle arrest in human MCF7 cells as assessed as accumulation at S phase at 0.1 uM after 48 hrs by propidium iodide staining-based flow cytometric analysis relative to control; type: functional
WI-38 [5] = test: Cell cycle arrest in human WI38 cells as assessed as accumulation at G1 phase at 1 uM after 48 hrs by propidium iodide staining-based flow cytometric analysis relative to control; conditions: wi-38, 48 h
WI-38 [6] = test: Cell cycle arrest in human WI38 cells as assessed as accumulation at G2/M phase at 0.1 uM after 24 hrs by propidium iodide staining-based flow cytometric analysis relative to control; conditions: wi-38, 24 h
HepG2 = test: Antiproliferative activity against human HepG2 cells after 72 hrs by MTT assay; type: functional, cell-based
K562 [7] = test: Cell cycle arrest in human K562 cells as assessed as accumulation at S phase at 1 uM after 24 hrs by propidium iodide staining-based flow cytometric analysis relative to control; type: functional
K562 [8] = test: Cell cycle arrest in human K562 cells as assessed as accumulation at S phase at 0.1 uM after 24 hrs by propidium iodide staining-based flow cytometric analysis relative to control; type: functional
K562 [9] = test: Cell cycle arrest in human K562 cells as assessed as accumulation at S phase at 1 uM after 48 hrs by propidium iodide staining-based flow cytometric analysis relative to control; type: functional
K562 [10] = test: Cell cycle arrest in human K562 cells as assessed as accumulation at G2/M phase at 0.5 uM after 48 hrs by propidium iodide staining-based flow cytometric analysis relative to control; type: functional
WI-38 [11] = test: Cell cycle arrest in human WI38 cells as assessed as accumulation at G2/M phase at 1 uM after 24 hrs by propidium iodide staining-based flow cytometric analysis relative to control; conditions: wi-38, 24 h
K562 [12] = test: Cell cycle arrest in human K562 cells as assessed as accumulation at G2/M phase at 0.1 uM after 24 hrs by propidium iodide staining-based flow cytometric analysis relative to control; type: functional
BJ = test: Antiproliferative activity against human BJ cells after 72 hrs by PrestoBlue colorimetric assay; type: cell-based
K562 [13] = test: Cell cycle arrest in human K562 cells as assessed as accumulation at G2/M phase at 1 uM after 48 hrs by propidium iodide staining-based flow cytometric analysis relative to control; type: functional
SW-620 [14] = test: Cell cycle arrest in human SW620 cells as assessed as accumulation at G1 phase at 0.1 uM after 48 hrs by propidium iodide staining-based flow cytometric analysis relative to control; type: functional
MCR = test: Antiproliferative activity against human MCR cells after 72 hrs by MTT assay; type: cell-based; conditions: human, mcr
SW-620 [15] = test: Cell cycle arrest in human SW620 cells as assessed as accumulation at G1 phase at 0.1 uM after 24 hrs by propidium iodide staining-based flow cytometric analysis relative to control; type: functional
K562 [16] = test: Cell cycle arrest in human K562 cells as assessed as accumulation at sub-G1 phase at 0.1 uM after 48 hrs by propidium iodide staining-based flow cytometric analysis relative to control; type: functional
MCF7 [17] = test: Cell cycle arrest in human MCF7 cells as assessed as accumulation at S phase at 1 uM after 48 hrs by propidium iodide staining-based flow cytometric analysis relative to control; type: functional
SW-620 [18] = test: Antiproliferative activity against human SW620 cells after 72 hrs by MTT assay; type: functional, cell-based
WI-38 [19] = test: Cell cycle arrest in human WI38 cells as assessed as accumulation at sub-G1 phase at 1 uM after 24 hrs by propidium iodide staining-based flow cytometric analysis relative to control; conditions: wi-38, 24 h
WI-38 [20] = test: Cell cycle arrest in human WI38 cells as assessed as accumulation at S phase at 0.1 uM after 48 hrs by propidium iodide staining-based flow cytometric analysis relative to control; conditions: wi-38, 48 h
WI-38 [21] = test: Cell cycle arrest in human WI38 cells as assessed as accumulation at S phase at 1 uM after 24 hrs by propidium iodide staining-based flow cytometric analysis relative to control; conditions: wi-38, 24 h
SW-620 [22] = test: Cell cycle arrest in human SW620 cells as assessed as accumulation at sub-G1 phase at 1 uM after 48 hrs by propidium iodide staining-based flow cytometric analysis relative to control; type: functional
K562 [23] = test: Cell cycle arrest in human K562 cells as assessed as accumulation at G1 phase at 0.5 uM after 24 hrs by propidium iodide staining-based flow cytometric analysis relative to control; type: functional
K562 [24] = test: Antiproliferative activity against apoptosis-resistant, Philadelphia chromosome-positive human K562 cells after 72 hrs by PrestoBlue colorimetric assay; type: functional, cell-based; conditions: K562, 72 h
MCF7 [25] = test: Cell cycle arrest in human MCF7 cells as assessed as accumulation at sub-G1 phase at 1 uM after 48 hrs by propidium iodide staining-based flow cytometric analysis relative to control; type: functional
WI-38 [26] = test: Cell cycle arrest in human WI38 cells as assessed as accumulation at sub-G1 phase at 0.1 uM after 48 hrs by propidium iodide staining-based flow cytometric analysis relative to control; conditions: wi-38, 48 h
WI-38 [27] = test: Cell cycle arrest in human WI38 cells as assessed as accumulation at sub-G1 phase at 0.1 uM after 24 hrs by propidium iodide staining-based flow cytometric analysis relative to control; conditions: wi-38, 24 h
WI-38 [28] = test: Cell cycle arrest in human WI38 cells as assessed as accumulation at S phase at 0.1 uM after 24 hrs by propidium iodide staining-based flow cytometric analysis relative to control; conditions: wi-38, 24 h
SW-620 [29] = test: Cell cycle arrest in human SW620 cells as assessed as accumulation at G2/M phase at 0.1 uM after 48 hrs by propidium iodide staining-based flow cytometric analysis relative to control; type: functional
K562 [30] = test: Cell cycle arrest in human K562 cells as assessed as accumulation at G1 phase at 0.1 uM after 24 hrs by propidium iodide staining-based flow cytometric analysis relative to control; type: functional
SW-620 [31] = test: Cell cycle arrest in human SW620 cells as assessed as accumulation at G2/M phase at 1 uM after 48 hrs by propidium iodide staining-based flow cytometric analysis relative to control; type: functional
MCF7 [32] = test: Antiproliferative activity against human MCF7 cells after 72 hrs by MTT assay; type: functional, cell-based
HeLa = test: Antiadhesive activity against human HeLa cells at 5 uM after 2 to 24 hrs by crystal-violet staining-based microscopic analysis; type: functional, cell-based
MCF7 [33] = test: Cell cycle arrest in human MCF7 cells as assessed as accumulation at sub-G1 phase at 0.1 uM after 48 hrs by propidium iodide staining-based flow cytometric analysis relative to control; type: functional
K562 [34] = test: Cell cycle arrest in human K562 cells as assessed as accumulation at G1 phase at 1 uM after 24 hrs by propidium iodide staining-based flow cytometric analysis relative to control; type: functional

Structure (SMILES): COCn1c(CC(COCc2ccccc2)COCc2ccccc2)c(C)c(=O)n(COC)c1=O
- Activity (K562 [1]): 2.2%
- Activity (WI-38 [2]): 3.5%
- Activity (SW-620 [3]): 53.1%
- Activity (MCF7 [4]): 11.9%
- Activity (WI-38 [5]): 45.5%
- Activity (WI-38 [6]): 6.9%
- Activity (HepG2): Dose-dependent effect
- Activity (K562 [7]): 26.6%
- Activity (K562 [8]): 28.6%
- Activity (K562 [9]): 25.9%
- Activity (K562 [10]): 3.9%
- Activity (WI-38 [11]): 5.1%
- Activity (K562 [12]): 22.2%
- IC50 (BJ): 5300 nM
- Activity (K562 [13]): 17.4%
- Activity (SW-620 [14]): 49.7%
- Activity (MCR): Dose-dependent effect
- Activity (SW-620 [15]): 51.5%
- Activity (K562 [16]): 3%
- Activity (MCF7 [17]): 4.9%
- Activity (SW-620 [18]): Dose-dependent effect
- IC50 (SW-620 [18]; SW-620, 72 h): 500 nM
- Activity (WI-38 [19]): 21%
- Activity (WI-38 [20]): 6.8%
- Activity (WI-38 [21]): 2.4%
- Activity (SW-620 [22]): 6.7%
- Activity (K562 [23]): 85.8%
- IC50 (K562 [24]): 600 nM
- Activity (MCF7 [25]): 78.9%
- Activity (WI-38 [26]): 38.5%
- Activity (WI-38 [27]): 21.9%
- Activity (WI-38 [28]): 8.9%
- Activity (SW-620 [29]): 15.5%
- Activity (K562 [30]): 48.4%
- Activity (SW-620 [31]): 15.8%
- Activity (MCF7 [32]): Dose-dependent effect
- IC50 (MCF7 [32]; MCF7, 72 h): 400 nM
- Activity (HeLa): Active
- Activity (MCF7 [33]): 50.5%
- Activity (K562 [34]): 53%

Source: ChEMBL document CHEMBL3286303, “Synthesis and in vitro antiproliferative evaluation of novel N-alkylated 6-isobutyl- and propyl pyrimidine derivatives” (Bioorg Med Chem Lett, 2014)
